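Growth conditions: 96-well plates. Treatment: test compound, 48 hours, 5 concentrations. Analysis: linear interpolation between bracketing concentrations; unreached endpoints set to highest concentration. Here, GI50 denotes the concentration required for 50% inhibition of growth.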 The source made the active and inactive calls. Cut-off read from the data, not from the text of the source: active = GI50 up to about 1.1 µM and inactive = higher. A value given as a limit tells only on which side of the number the result lay.

Some test systems named below: A498; ACHN; CAKI-1; DU-145; IGROV-1; MCF7; MDA-MB-231; MDA-N; Malme-3M; NCI-H23; NCI-H460; NCI/ADR-RES; OVCAR-8; PC-3; SK-OV-3; SN12C; U-251; UACC-257; HL-60; OVCAR-3.
Common to all, as to experiment: DTP human tumour cell line panel, 48 h

By GI50 is commonly meant the concentration at which growth is held to half of that of the control. As to `C=C(OC1C(C)=C2C(C1OC(=O)CCCCCCC)C(C)(OC(C)=O)CC(OC(=O)CCC)C1(O)C2OC(=O)C1(C)O)/C(C)=C/C` (stereo not drawn), the GI50 with A498 is 0.0125 µM (active); with ACHN, 0.000585 µM (active); in the assay on CAKI-1, 0.0125 µM (active); with DU-145 it was < 0.0001 µM (active); in the assay with IGROV-1 it was 0.0125 µM (active); in the assay on MCF7, 0.0125 µM (active). Further, the 50% growth inhibitory concentration (GI50) in the assay on MDA-MB-231 was < 0.0001 µM (active); in the assay on MDA-N, < 0.0001 µM (active); with Malme-3M, 0.0125 µM (active); in the assay with NCI-H23, 0.0125 µM (active); with NCI-H460 it was 0.0125 µM (active); in the assay on NCI/ADR-RES it was 0.478 µM (active). For the same compound, the GI50 was 0.0125 µM (active) with OVCAR-8; < 0.0001 µM (active) in the assay on PC-3; 0.34 µM (active) with SK-OV-3; 0.0125 µM (active) with SN12C; 0.0125 µM (active) in the assay with U-251; 0.0125 µM (active) in the assay on UACC-257.

Take `CC(C)(C)CN1[C@@H]2CCCC[C@H]2N(CC(C)(C)C)P1(=O)Cc1ccccc1`: the GI50 was 15.2 µM (inactive) in the assay on ACHN; 12.7 µM (inactive) in the assay on CAKI-1; 15.6 µM (inactive) in the assay on DU-145; 11.3 µM (inactive) in the assay on HL-60; 11 µM (inactive) in the assay with IGROV-1; 12.8 µM (inactive) in the assay with MCF7. The GI50 in the assay with MDA-MB-231 was 12.2 µM (inactive); with MDA-N, 14.9 µM (inactive); with Malme-3M, 13.5 µM (inactive); in the assay with NCI-H23, 13 µM (inactive); in the assay with NCI-H460 it was 13.2 µM (inactive); with NCI/ADR-RES it was 12.1 µM (inactive). For the same compound, the GI50 was 10.7 µM (inactive) in the assay with OVCAR-3; 14.4 µM (inactive) in the assay with OVCAR-8; 6.5 µM (inactive) in the assay with PC-3; 15.1 µM (inactive) in the assay with SK-OV-3; 16.3 µM (inactive) in the assay with SN12C; 13.4 µM (inactive) in the assay with U-251. Moreover, the GI50 in the assay on UACC-257 is 12.8 µM (inactive).

Regarding `CCCCc1ccc(-n2sc3ncc(C)cc3c2=O)cc1`, the GI50 was 30.9 µM (inactive) in the assay with ACHN; 30.3 µM (inactive) in the assay with DU-145; 8.57 µM (inactive) in the assay on HL-60; 21.7 µM (inactive) in the assay with IGROV-1; 19.5 µM (inactive) with MCF7; 25.6 µM (inactive) in the assay on MDA-MB-231. Besides, the GI50 with MDA-N was 51.5 µM (inactive); in the assay on Malme-3M it was 25.8 µM (inactive); in the assay with NCI-H23 it was 30.1 µM (inactive); in the assay with NCI-H460 it was 12.6 µM (inactive); in the assay on NCI/ADR-RES, 27.6 µM (inactive); in the assay on OVCAR-3 it was 18.5 µM (inactive). Also, the GI50 with OVCAR-8 was 21 µM (inactive); in the assay with PC-3, 15 µM (inactive); in the assay on SK-OV-3, 28.6 µM (inactive); with SN12C it was 21.9 µM (inactive); in the assay with U-251 it was 32.7 µM (inactive).

With `Cc1cc(-c2ccc[nH]2)on1`, the GI50 in the assay on A498, in the assay on ACHN, with CAKI-1, in the assay with DU-145, with IGROV-1 and in the assay on MCF7 was > 100 µM (inactive) in each case. For the same compound, the GI50 in the assay on MDA-MB-231, in the assay with MDA-N, with Malme-3M, with NCI-H23, in the assay with NCI-H460 and in the assay on NCI/ADR-RES was > 100 µM (inactive) in each case. For the same compound, the GI50 in the assay on OVCAR-3, with OVCAR-8, in the assay on PC-3, in the assay on SK-OV-3, in the assay with U-251 and in the assay with UACC-257 was > 100 µM (inactive) each time.

In the case of `Cn1c(=O)n2n(c1=O)C(S(=O)(=O)c1ccccc1)C2` (stereo not drawn), the GI50 with ACHN, with CAKI-1, in the assay with DU-145, in the assay with IGROV-1, in the assay on MCF7 and with MDA-MB-231 was > 100 µM (inactive) each time. Also, the GI50 with MDA-N, with Malme-3M, in the assay on NCI-H23, in the assay on NCI-H460, in the assay with NCI/ADR-RES and with OVCAR-3 was > 100 µM (inactive) in each case. In addition, the GI50 in the assay on OVCAR-8, with PC-3, in the assay on SK-OV-3, in the assay with SN12C, in the assay with U-251 and in the assay on UACC-257 was > 100 µM (inactive) each time.

In the case of `O=C(Cc1ccccc1)NCCCN(CCCCN(CCCNC(=O)Cc1ccccc1)C(=O)OCc1ccccc1)C(=O)OCc1ccccc1`, the GI50 is > 75.9 µM (inactive) with A498; > 21.6 µM (inactive) with ACHN; 4.74 µM (inactive) with CAKI-1; > 100 µM (inactive) with DU-145; > 100 µM (inactive) with IGROV-1; > 81.1 µM (inactive) with MCF7. In addition, the GI50 in the assay with MDA-MB-231 is > 100 µM (inactive); in the assay with MDA-N, > 100 µM (inactive); in the assay with NCI-H23 it was > 100 µM (inactive); with NCI-H460, > 19.9 µM (inactive); in the assay on NCI/ADR-RES, > 100 µM (inactive); with OVCAR-3, > 100 µM (inactive). The GI50 with OVCAR-8 was > 100 µM (inactive); with PC-3, 7.45 µM (inactive); with SK-OV-3, > 100 µM (inactive); with SN12C it was > 100 µM (inactive); in the assay on U-251, > 100 µM (inactive); with UACC-257, > 100 µM (inactive).

With `O=c1[nH]c2c(S)nc(O)nc2n1-c1ccccc1`, the GI50 with A498, with ACHN, with CAKI-1, in the assay on DU-145, with IGROV-1 and with MDA-MB-231 was > 100 µM (inactive) throughout. Further, the GI50 in the assay on MDA-N, in the assay on Malme-3M, in the assay with NCI-H23, in the assay with NCI-H460, with NCI/ADR-RES and in the assay on OVCAR-3 was > 100 µM (inactive) throughout. Moreover, the GI50 in the assay with OVCAR-8, with PC-3, with SN12C, with U-251 and in the assay on UACC-257 was > 100 µM (inactive) in each case.

For `N#CC(c1cc2c(cc1Br)OCO2)N1CCOCC1` (stereo not drawn), the GI50 with ACHN was 62.8 µM (inactive); in the assay on CAKI-1, > 100 µM (inactive); in the assay on DU-145, 48.5 µM (inactive); in the assay with HL-60, 3.33 µM (inactive); with IGROV-1 it was 58.1 µM (inactive); in the assay on MCF7 it was 42.3 µM (inactive). In addition, the GI50 with MDA-MB-231 is 43.7 µM (inactive); in the assay with MDA-N it was 18.2 µM (inactive); in the assay on Malme-3M, 78.9 µM (inactive); in the assay on NCI-H23, 98.2 µM (inactive); with NCI-H460 it was > 100 µM (inactive); in the assay on NCI/ADR-RES it was 27.1 µM (inactive). Besides, the GI50 is 30.1 µM (inactive) in the assay on OVCAR-3; > 100 µM (inactive) in the assay on OVCAR-8; 15.3 µM (inactive) in the assay on PC-3; 73.3 µM (inactive) in the assay on SK-OV-3; 56.2 µM (inactive) with SN12C; > 100 µM (inactive) in the assay with UACC-257.

The values above are taken from ChEMBL document CHEMBL1201862, “PubChem BioAssay data set” (2004).
